According to patent publication US20070128217A1 (priority 2003, published 2007):

Experiments:
[1] = tested on: antibodies in sera from SARS patients (sera 1a, 1b, 2, 6, 37, 62, London, SARS-yellow, SARS-green); format: binding, human; parameters: Binding of serum 6 to linear peptides of protein X1 of SARS-CoV Urbani / Binding of serum 37 to linear peptides of protein X1 of SARS-CoV Urbani / Binding of serum 6 to looped/cyclic peptide (PEPSCAN-ELISA) / Binding of serum 37 to looped/cyclic peptide (PEPSCAN-ELISA) / Binding of serum 37 to looped/cyclic peptides of protein X1 of SARS-CoV Urbani / Binding of serum 6 to linear peptides of protein X2 / Binding of serum 37 to linear peptides of protein X2 / Binding of serum 37 to looped/cyclic peptides of protein X2 of SARS-CoV Urbani / Binding of serum 6 to linear peptides of protein M of SARS-CoV Urbani / Binding of serum 37 to linear peptides of protein M of SARS-CoV Urbani / Binding of serum 6 to looped/cyclic peptides of protein M of SARS-CoV Urbani / Binding of serum 37 to looped/cyclic peptides of protein M of SARS-CoV Urbani / Binding of serum 6 to linear peptides of protein X3 of SARS-CoV Urbani / Binding of serum 37 to linear peptides of protein X3 of SARS-CoV Urbani / Binding of serum 37 to looped/cyclic peptides of protein X3 of SARS-CoV Urbani / Binding of serum 6 to linear peptides of protein X4 of SARS-CoV Urbani / Binding of serum 37 to linear peptides of protein X4 of SARS-CoV Urbani / Binding of serum 37 to looped/cyclic peptides of protein X4 of SARS-CoV Urbani / Binding of serum 6 to linear peptides of protein X5 of SARS-CoV Urbani / Binding of serum 37 to linear peptides of protein X5 of SARS-CoV Urbani / Binding of serum 37 to looped/cyclic peptides of protein X5 of SARS-CoV Urbani / Binding of serum 6 to linear peptides of protein N of SARS-CoV Urbani / Binding of serum 37 to linear peptides of protein N of SARS-CoV Urbani / Binding of serum 6 to linear peptide (PEPSCAN-ELISA) / Binding of serum 1a to looped/cyclic peptides of protein N of SARS-CoV Urbani / Binding of serum 1b to looped/cyclic peptides of protein N of SARS-CoV Urbani / Binding of serum 2 to looped/cyclic peptides of protein N of SARS-CoV Urbani / Binding of serum 6 to looped/cyclic peptides of protein N of SARS-CoV Urbani / Binding of serum 37 to looped/cyclic peptides of protein N of SARS-CoV Urbani / Binding of serum 62 to looped/cyclic peptides of protein N of SARS-CoV Urbani / Binding of serum London to looped/cyclic peptides of protein N of SARS-CoV Urbani / Binding of serum SARS-green to looped/cyclic peptides of protein N of SARS-CoV Urbani: unit not given here
[2] = tested on: control sera (pooled serum of ten healthy LUMC hospital workers; commercial negative donor pooled serum from the Dutch bloodbank); format: binding, human; parameters: Binding of Control serum LUMC to linear peptides / Binding of Control serum Blood-bank to linear peptides / Binding of Control serum LUMC to looped peptides / Binding of Control Serum Blood-Bank to Looped peptides / Binding of Control serum LUMC to linear peptides of the protein M of SARS-CoV Urbani / Binding of Control serum Blood-bank to linear peptides of the protein M of SARS-CoV Urbani / Binding of Control serum LUMC to looped peptides of the protein M of SARS-CoV Urbani / Binding of Control Serum Blood-Bank to Looped peptides of the protein M of SARS-CoV Urbani: unit not given here
[3] = tested on: rabbit serum obtained by immunizing a rabbit with the SARS-CoV strain Frankfurt 1; format: binding; parameters: Binding of a rabbit serum to linear peptides / Binding of a rabbit serum to looped peptides / Rabbit serum linear peptides / Rabbit serum looped peptides / Binding of a rabbit serum to linear peptides of protein N of SARS-CoV Urbani (Rabbit serum linear peptides) / Binding of a rabbit serum to looped/cyclic peptides of protein N of SARS-CoV Urbani (Rabbit serum looped peptides): unit not given here

Sequence: LLLVAAGMEAQFLYL
- Binding of serum 1a to linear peptides of protein X1 of SARS-CoV Urbani [1]: 0.9
- Binding of serum 1a to looped/cyclic peptide (PEPSCAN-ELISA) [1]: 0.6
- Binding of serum 1b to linear peptides of protein X1 of SARS-CoV Urbani [1]: 0.8
- Binding of serum 1b to looped/cyclic peptide (PEPSCAN-ELISA) [1]: 0.5
- Binding of serum 2 to linear peptides of protein X1 of SARS-CoV Urbani [1]: 0.6
- Binding of serum 2 to looped/cyclic peptide (PEPSCAN-ELISA) [1]: 0.6
- Binding of serum 6 to linear peptides of protein X1 of SARS-CoV Urbani [1]: 0.5
- Binding of serum 6 to looped/cyclic peptide (PEPSCAN-ELISA) [1]: 0.3
- Binding of serum 37 to linear peptides of protein X1 of SARS-CoV Urbani [1]: 0.6
- Binding of serum 37 to looped/cyclic peptide (PEPSCAN-ELISA) [1]: 0.7
- Binding of serum 62 to linear peptides of protein X1 of SARS-CoV Urbani [1]: 0.6
- Binding of serum 62 to looped/cyclic peptide (PEPSCAN-ELISA) [1]: 0.7
- Binding of serum London to linear peptides of protein X1 of SARS-CoV Urbani [1]: 0.2
- Binding of serum London to looped/cyclic peptide (PEPSCAN-ELISA) [1]: 0.2
- Binding of serum SARS-green to linear peptides of protein X1 of SARS-CoV Urbani [1]: 0.1
- Binding of serum SARS-green to looped/cyclic peptide (PEPSCAN-ELISA) [1]: 0.5
- Binding of serum SARS-yellow to linear peptides of protein X1 of SARS-CoV Urbani [1]: 0.6
- Binding of serum SARS-yellow to looped/cyclic peptide (PEPSCAN-ELISA) [1]: 0.6
- Binding of Control Serum Blood-Bank to Looped peptides [2]: 0.5
- Binding of Control serum Blood-bank to linear peptides [2]: 0.6
- Binding of Control serum LUMC to linear peptides [2]: 1.0
- Binding of Control serum LUMC to looped peptides [2]: 0.7
- Binding of a rabbit serum to linear peptides [3]: 0.2
- Binding of a rabbit serum to looped peptides [3]: 0.5

Sequence: VGLMWLSYFVASFRL
- Binding of serum 1a to linear peptides of protein M of SARS-CoV Urbani [1]: 0.6
- Binding of serum 1a to looped/cyclic peptides of protein M of SARS-CoV Urbani [1]: 0.6
- Binding of serum 1b to linear peptides of protein M of SARS-CoV Urbani [1]: 0.5
- Binding of serum 1b to looped/cyclic peptides of protein M of SARS-CoV Urbani [1]: 0.3
- Binding of serum 2 to linear peptides of protein M of SARS-CoV Urbani [1]: 0.4
- Binding of serum 2 to looped/cyclic peptides of protein M of SARS-CoV Urbani [1]: 0.5
- Binding of serum 6 to linear peptides of protein M of SARS-CoV Urbani [1]: 0.5
- Binding of serum 6 to looped/cyclic peptides of protein M of SARS-CoV Urbani [1]: 0.5
- Binding of serum 37 to linear peptides of protein M of SARS-CoV Urbani [1]: 0.4
- Binding of serum 37 to looped/cyclic peptides of protein M of SARS-CoV Urbani [1]: 0.6
- Binding of serum 62 to linear peptides of protein M of SARS-CoV Urbani [1]: 0.4
- Binding of serum 62 to looped/cyclic peptides of protein M of SARS-CoV Urbani [1]: 0.5
- Binding of serum London to linear peptides of protein M of SARS-CoV Urbani [1]: 0.5
- Binding of serum London to looped/cyclic peptides of protein M of SARS-CoV Urbani [1]: 0.2
- Binding of serum SARS-green to linear peptides of protein M of SARS-CoV Urbani [1]: 0.4
- Binding of serum SARS-green to looped/cyclic peptides of protein M of SARS-CoV Urbani [1]: 0.2
- Binding of serum SARS-yellow to linear peptides of protein M of SARS-CoV Urbani [1]: 0.1
- Binding of serum SARS-yellow to looped/cyclic peptides of protein M of SARS-CoV Urbani [1]: 0.8
- Binding of Control Serum Blood-Bank to Looped peptides of the protein M of SARS-CoV Urbani [2]: 0.6
- Binding of Control serum Blood-bank to linear peptides of the protein M of SARS-CoV Urbani [2]: 0.6
- Binding of Control serum LUMC to linear peptides of the protein M of SARS-CoV Urbani [2]: 0.5
- Binding of Control serum LUMC to looped peptides of the protein M of SARS-CoV Urbani [2]: 0.6
- Rabbit serum linear peptides [3]: 0.0
- Rabbit serum looped peptides [3]: 0.4

Sequence: SLSLHKLLQTLVLKM
- Binding of serum 1a to linear peptides of protein X2 [1]: 0.6
- Binding of serum 1a to looped/cyclic peptides of protein X2 of SARS-CoV Urbani [1]: 0.5
- Binding of serum 1b to linear peptides of protein X2 [1]: 0.5
- Binding of serum 1b to looped/cyclic peptides of protein X2 of SARS-CoV Urbani [1]: 0.5
- Binding of serum 2 to linear peptides of protein X2 [1]: 0.3
- Binding of serum 2 to looped/cyclic peptides of protein X2 of SARS-CoV Urbani [1]: 0.3
- Binding of serum 6 to linear peptides of protein X2 [1]: 0.5
- Binding of serum 6 to looped/cyclic peptides of protein X2 of SARS-CoV Urbani [1]: 0.9
- Binding of serum 37 to linear peptides of protein X2 [1]: 0.4
- Binding of serum 37 to looped/cyclic peptides of protein X2 of SARS-CoV Urbani [1]: 0.4
- Binding of serum 62 to linear peptides of protein X2 [1]: 0.5
- Binding of serum 62 to looped/cyclic peptides of protein X2 of SARS-CoV Urbani [1]: 0.5
- Binding of serum London to linear peptides of protein X2 [1]: 0.4
- Binding of serum London to looped/cyclic peptides of protein X2 of SARS-CoV Urbani [1]: 1.2
- Binding of serum SARS-green to linear peptides of protein X2 [1]: 0.6
- Binding of serum SARS-green to looped/cyclic peptides of protein X2 of SARS-CoV Urbani [1]: 0.3
- Binding of serum SARS-yellow to linear peptides of protein X2 [1]: 0.3
- Binding of serum SARS-yellow to looped/cyclic peptides of protein X2 of SARS-CoV Urbani [1]: 0.7
- Binding of Control Serum Blood-Bank to Looped peptides [2]: 0.6
- Binding of Control serum Blood-bank to linear peptides [2]: 0.4
- Binding of Control serum LUMC to linear peptides [2]: 0.3
- Binding of Control serum LUMC to looped peptides [2]: 0.7
- Binding of a rabbit serum to linear peptides [3]: 0.1
- Binding of a rabbit serum to looped peptides [3]: 0.4
